According to PubChem BioAssay AID2060617 (Molecular Pharmacology Branch, DTP, NCI, 2025):
“And” between values parts separate entries of the source, which are not always exact repeats. Equal entries are not always repeated.

Tested on: 485368-065-R4-J2-PDC spheroids with HUVEC/MSC, viability
Assay: Anticancer human tumor 485368-065-R4-J2-PDC patient-derived pancreatic carcinoma cell line growth inhibition [CLK]
Details: for viability, T/C: stronger effect = lower value
In short: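 Patient-derived tumor cells grown as complex spheroids with HUVEC endothelial cells and mesenchymal stem cells, treated with drug combinations. Concentrations descend in half-log steps from near clinical Cmax, or from 10 microM if Cmax unknown.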

[1] = curve of first compound, second compound 0.0316 µM
[2] = curve of first compound, second compound 0.1 µM
[3] = curve of first compound, second compound 0.316 µM
[4] = curve of first compound, second compound 1 µM
[5] = curve of first compound, second compound 3.16 µM
[6] = curve of first compound, second compound 10 µM
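Also: spheroids exposed to compounds for seven days.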
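For viability, T/C in this document: 100% = DMSO vehicle control wells.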

CCc1c2c(nc3ccc(O)cc13)-c1cc3c(c(=O)n1C2)COC(=O)[C@]3(O)CC + CN1CCN(c2cc(C(=O)Nc3cc4cc(-c5cnn(C)c5)ccc4cn3)ccn2)CC1
IC50 [1]: < 3.16 nM
IC50 [2]: < 3.16 nM
IC50 [3]: < 3.16 nM
IC50 [4]: < 3.16 nM
IC50 [5]: < 3.16 nM
IC50 [6]: < 3.16 nM
viability, T/C (second compound 0.0316 µM, first compound 0.00316 µM): 38.6%
viability, T/C (second compound 0.0316 µM, first compound 0.01 µM): 20%
viability, T/C (second compound 0.0316 µM, first compound 0.0316 µM): 11.3%
viability, T/C (second compound 0.0316 µM, first compound 0.1 µM): 7.09%
viability, T/C (second compound 0.0316 µM, first compound 0.316 µM): 8.74%
viability, T/C (second compound 0.0316 µM, first compound 1 µM): 11.7%
viability, T/C (second compound 0.1 µM, first compound 0.00316 µM): 33.3%
viability, T/C (second compound 0.1 µM, first compound 0.01 µM): 16.6%
viability, T/C (second compound 0.1 µM, first compound 0.0316 µM): 9.62%
viability, T/C (second compound 0.1 µM, first compound 0.1 µM): 6.3%
viability, T/C (second compound 0.1 µM, first compound 0.316 µM): 10.2%
viability, T/C (second compound 0.1 µM, first compound 1 µM): 15.5%
viability, T/C (second compound 0.316 µM, first compound 0.00316 µM): 26.4%
viability, T/C (second compound 0.316 µM, first compound 0.01 µM): 12.7%
viability, T/C (second compound 0.316 µM, first compound 0.0316 µM): 8.57%
viability, T/C (second compound 0.316 µM, first compound 0.1 µM): 8%
viability, T/C (second compound 0.316 µM, first compound 0.316 µM): 11.9%
viability, T/C (second compound 0.316 µM, first compound 1 µM): 13.1%
viability, T/C (second compound 1 µM, first compound 0.00316 µM): 2.16%
viability, T/C (second compound 1 µM, first compound 0.01 µM): 3.01%
viability, T/C (second compound 1 µM, first compound 0.0316 µM): 7.32%
viability, T/C (second compound 1 µM, first compound 0.1 µM): 8.2%
viability, T/C (second compound 1 µM, first compound 0.316 µM): 13.4%
viability, T/C (second compound 1 µM, first compound 1 µM): 15.4%
viability, T/C (second compound 3.16 µM, first compound 0.00316 µM): 3.22%
viability, T/C (second compound 3.16 µM, first compound 0.01 µM): 5.26%
viability, T/C (second compound 3.16 µM, first compound 0.0316 µM): 11.6%
viability, T/C (second compound 3.16 µM, first compound 0.1 µM): 11.3%
viability, T/C (second compound 3.16 µM, first compound 0.316 µM): 14.1%
viability, T/C (second compound 3.16 µM, first compound 1 µM): 13%
viability, T/C (second compound 10 µM, first compound 0.00316 µM): 2.58%
viability, T/C (second compound 10 µM, first compound 0.01 µM): 4.97%
viability, T/C (second compound 10 µM, first compound 0.0316 µM): 9.49%
viability, T/C (second compound 10 µM, first compound 0.1 µM): 8.95%
viability, T/C (second compound 10 µM, first compound 0.316 µM): 11.7%
viability, T/C (second compound 10 µM, first compound 1 µM): 14%

O=c1[nH]cc(F)c(=O)[nH]1
viability, T/C (compound 0.0316 µM): 95.5% and 88.4%
viability, T/C (compound 0.1 µM): 96.6% and 84.4%
viability, T/C (compound 0.316 µM): 95.6% and 87.4%
viability, T/C (compound 1 µM): 96.9% and 95.8%
viability, T/C (compound 3.16 µM): 96.6% and 96%
viability, T/C (compound 10 µM): 88.5% and 82.3%
IC50 (curve of compound): > 10000 nM

NC(=O)C(=Cn1cnc(-c2cc(C(F)(F)F)cc(C(F)(F)F)c2)n1)c1cncnc1 + CN1CCN(c2cc(C(=O)Nc3cc4cc(-c5cnn(C)c5)ccc4cn3)ccn2)CC1
IC50 [1]: > 3000 nM
IC50 [2]: 2910 nM
IC50 [3]: 48.1 nM
IC50 [4]: < 9.49 nM
IC50 [5]: < 9.49 nM
IC50 [6]: < 9.49 nM
viability, T/C (second compound 0.0316 µM, first compound 0.00949 µM): 100%
viability, T/C (second compound 0.0316 µM, first compound 0.03 µM): 127%
viability, T/C (second compound 0.0316 µM, first compound 0.0949 µM): 173%
viability, T/C (second compound 0.0316 µM, first compound 0.3 µM): 170%
viability, T/C (second compound 0.0316 µM, first compound 0.949 µM): 142%
viability, T/C (second compound 0.0316 µM, first compound 3 µM): 71.4%
viability, T/C (second compound 0.1 µM, first compound 0.00949 µM): 109%
viability, T/C (second compound 0.1 µM, first compound 0.03 µM): 125%
viability, T/C (second compound 0.1 µM, first compound 0.0949 µM): 155%
viability, T/C (second compound 0.1 µM, first compound 0.3 µM): 129%
viability, T/C (second compound 0.1 µM, first compound 0.949 µM): 79.5%
viability, T/C (second compound 0.1 µM, first compound 3 µM): 49.2%
viability, T/C (second compound 0.316 µM, first compound 0.00949 µM): 71.2%
viability, T/C (second compound 0.316 µM, first compound 0.03 µM): 65.3%
viability, T/C (second compound 0.316 µM, first compound 0.0949 µM): 28.8%
viability, T/C (second compound 0.316 µM, first compound 0.3 µM): 11.8%
viability, T/C (second compound 0.316 µM, first compound 0.949 µM): 4.77%
viability, T/C (second compound 0.316 µM, first compound 3 µM): 3.83%
viability, T/C (second compound 1 µM, first compound 0.00949 µM): 0.93%
viability, T/C (second compound 1 µM, first compound 0.03 µM): 1.37%
viability, T/C (second compound 1 µM, first compound 0.0949 µM): 3.35%
viability, T/C (second compound 1 µM, first compound 0.3 µM): 7.19%
viability, T/C (second compound 1 µM, first compound 0.949 µM): 6.52%
viability, T/C (second compound 1 µM, first compound 3 µM): 6.06%
viability, T/C (second compound 3.16 µM, first compound 0.00949 µM): 1.64%
viability, T/C (second compound 3.16 µM, first compound 0.03 µM): 3.12%
viability, T/C (second compound 3.16 µM, first compound 0.0949 µM): 5.78%
viability, T/C (second compound 3.16 µM, first compound 0.3 µM): 7.76%
viability, T/C (second compound 3.16 µM, first compound 0.949 µM): 10.5%
viability, T/C (second compound 3.16 µM, first compound 3 µM): 8.08%
viability, T/C (second compound 10 µM, first compound 0.00949 µM): 1.73%
viability, T/C (second compound 10 µM, first compound 0.03 µM): 4.63%
viability, T/C (second compound 10 µM, first compound 0.0949 µM): 4.7%
viability, T/C (second compound 10 µM, first compound 0.3 µM): 7.24%
viability, T/C (second compound 10 µM, first compound 0.949 µM): 9.55%
viability, T/C (second compound 10 µM, first compound 3 µM): 6.71%
